# Reference: paper PMC9645390, “Amphiphilic stilbene derivatives attenuate the neurotoxicity of soluble Aβ42 oligomers by controlling their interactions with cell membranes” (Chemical Science, 2022)
# System: SH-SY5Y cells
# Test: Cell toxicity studies in SH-SY5Y cells
# Type: cell-based, human
# Details: 10 µM
# Text: Encouraged by the ability of the developed amphiphilic compounds to attenuate the neurotoxicity of Cu–Aβ species, we sought out to study the possible molecular mechanisms for this beneficial effect. The Aβ oligomers were reported to interact with cell membranes in various ways, such as binding to receptors on cell membranes,[49,50] inserting into membranes,[51] or even showing cellular uptake via endocytosis.[52] The abnormal interactions between Aβ oligomers and neuron cells, which could disrupt the neuronal ion homeostasis and neuron cell membrane integrity, might be why Aβ oligomers are highly neurotoxic.[53–55] Moreover, molecules that can disrupt interactions between oligomers and cell membranes are promising candidates for drug development.[56,57] Thus, we proceeded to probe the interactions of the Aβ42 oligomers with SH-SY5Y cellular membranes, in the absence and presence of the compounds, via confocal microscopy. […] Moreover, a lower concentration of Aβ42 (5 μM) or Aβ42–Cu (5 μM) were chosen to avoid significant cell death (Fig. S9b ^†). Before investigating the neuroprotective effect of our compounds, we have also confirmed that Aβ aggregates interact tightly with the cell membranes, as shown via co-staining with a membrane specific dye (Fig. S10 ^†). Subsequently, SH-SY5Y cells were treated with Aβ oligomers or a combination of Aβ oligomers and compounds for 24 h, followed by the immunofluorescence staining with the CF594-labeled anti-Aβ antibody HJ 3.4 (Fig. 10) and nuclei staining, shown in the red and blue channels, respectively. Compared to the untreated group, the Aβ oligomers were found mainly bound to cell membranes. […] To understand this unusual behavior, we posited that the Aβ oligomers would start the fibrilization process when incubated in the cell media. […] Therefore, we proceeded to probe if our compounds could prevent the binding of Aβ fibrils to cell membranes. […] Given these encouraging results, we moved to study if the amphiphilic compounds can further control the interactions between Cu–Aβ species and cell membranes. Firstly, when SH-SY5Y cells were treated with Aβ monomers for 48 h, the aggregated Aβ species interacting with cell membranes were observed (Fig. 11a). […] However, these aggregates are still smaller than the insoluble fibrils (Fig. S11 ^†), indicating they are still soluble oligomeric Aβ species.
# 11. Cell toxicity studies in SH-SY5Y cells
# Figure S9. Cell toxicity studies in SH-SY5Y cells. a) [ZY- 12-MT] = [ZY-15-OMe] = [ZY-15-MT] = [ZY-5-OMe] =
# 10 µM. b) Average cell numbers in presence of 5 µM Aβ42 monomer, 5 µM (Aβ42 monomer + Cu2+), 5 µM (Aβ42
# monomer + Cu2+ + ZY-15-MT) and 5 µM (Aβ42 monomer + Cu2+ + ZY-15-OMe).
# (1 picture or pasted object on this page, not shown here)
row,Structure (SMILES),toxicity towards SH-SY5Y cells (in words)
1,COc1cc(/C=C/c2ccc(-c3ccc(N(C)C)cc3)s2)cc(CN2CCN(C)CCN(C)CC2)c1O [ZY-5-OMe],not toxic towards SH-SY5Y cells
2,CN1CCN(C)CCN(Cc2cc(-c3ccc(/C=C/c4ccc(N(C)C)cc4)s3)ccc2O)CC1 [ZY-12-MT],not toxic towards SH-SY5Y cells
3,CN1CCN(C)CCN(Cc2cc(/C=C/c3ccc(-c4ccc(C=O)cc4)s3)ccc2O)CC1 [ZY-15-MT],not toxic towards SH-SY5Y cells
4,COc1cc(/C=C/c2ccc(-c3ccc(C=O)cc3)s2)cc(CN2CCN(C)CCN(C)CC2)c1O [ZY-15-OMe],not toxic towards SH-SY5Y cells

# Target: T1, Aβ plaques in 5xFAD mice brain sections (Homo sapiens, UniProt P05067)
# T1 construct: aggregated Aβ species were commonly observed in brain sections from 5xFAD transgenic mice; tissue Jackson Laboratories; host or cells: brain sections of 9-month-old 5xFAD transgenic mice
# Test: Fluorescence imaging of 5xFAD mouse brain sections, colocalization with Congo Red
# Details: 9-month-old 5xFAD brain sections; compound 5 μM, Congo red 2.5 μM
# Method: In order to confirm that the compounds can also bind to native Aβ species, brain sections collected from 9-month-old 5xFAD transgenic mice have been employed in the fluorescence imaging studies. […] The brain sections were first incubated with our compounds, followed by Congo Red (CR), which is a well-established fluorescent probe that can bind to Aβ plaques.[34] The treated brain sections were then imaged using fluorescence microscope. […] Immunostaining with the CF594-conjugated HJ 3.4 antibody (CF594-HJ3.4) was also performed to confirm that these six compounds can bind to Aβ species specifically in the brain sections (Fig. 5). Moreover, the log D values of the compounds were also measured by octanol-PBS partition assays.[35]
# Fig. 4 Fluorescence microscopy images of 5xFAD mice brain sections co-incubated with amphiphilic compounds (top), Congo red (middle) and merged images (bottom, along with the Parson's correlation coefficients R). Concentrations: [amphiphilic compounds] = 5 μM, [Congo red] = 2.5 μM; scale bar: 125 μm. TEXT PRINTED IN THE PICTURE: ZY-5-MT: Merged R= 0.84 | ZY-12-DT: Merged R= 0.52 | ZY-12-OMe: Merged R= 0.77 | ZY-15-OMe: Merged R= 0.77 | ZY-17-DT: Merged R= 0.77 | ZY-17-OMe: Merged R= 0.72 […]
# Histological Staining of 5×FAD Mice Brain Sections
# 5xFAD transgenic mice brain sections were blocked with bovine serum albumin (2% BSA in PBS, pH 7.4, 10 min). Then the mice brain sections were transferred to a PBS solution of the compound and incubated for 1 h. After which, the brain sections were transferred to a PBS solution of Congo Red or antibody HJ 3.4 (Professor David Holtzman, 1 μg/ml) and incubated for another 1 h. Then, the brain sections were treated with BSA again (5 min) followed by washing with PBS (3 × 2 min), DI water (3 × 2 min). Finally, the mice brain sections were mounted with non-fluorescent mounting media, and the images were obtained by using EVOS FL Auto 2. ImageJ Fiji program was used for colocalization analysis and determination of the Pearson’s correlation coefficient. The primary
# T1 sequence (P05067 672-713 limits assumed): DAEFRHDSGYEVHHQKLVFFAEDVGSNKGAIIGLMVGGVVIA
row,Structure (SMILES),"Pearson's correlation coefficient R, colocalization with Congo Red"
1,COc1cc(/C=C/c2ccc(-c3ccc(C=O)cc3)s2)cc(CN2CCN(C)CCN(C)CC2)c1O [ZY-15-OMe],0.77
2,COc1cc(OC)cc(-c2ccc(/C=C/c3cc(CN4CCN(C)CCN(C)CC4)c(O)c(CN4CCN(C)CCN(C)CC4)c3)cc2)c1 [ZY-17-DT],0.77
3,COc1cc(OC)cc(-c2ccc(/C=C/c3cc(CN4CCN(C)CCN(C)CC4)c(O)c(OC)c3)cc2)c1 [ZY-17-OMe],0.72
